{"source": "patent US20250019381A1", "about": "“PROCESS FOR THE […] OF 6-((3S,4S)-4-METHYL-1-(PYRIMIDIN-2-[…])PYRROLIDIN-3-YL)-3-(TETRAHYDROPYRAN-4-YL-7H-IMIDAZO[1,5-a]PYRAZIN-8-ONE” (Cardurion Pharmaceuticals, Inc., priority 2017, published 2025)", "key": {"PDE1": {"tested_on": "PDE1", "experiment": "PDE1 inhibition IC50", "assay_type": "biochemical"}, "[1]": {"experiment": "Blood Brain Barrier penetration: plasma and brain concentration", "assay_type": "in vivo"}, "PDE9": {"target": "PDE9 (Homo sapiens (Human), UniProt O76083)", "sequence (O76083 whole entry)": "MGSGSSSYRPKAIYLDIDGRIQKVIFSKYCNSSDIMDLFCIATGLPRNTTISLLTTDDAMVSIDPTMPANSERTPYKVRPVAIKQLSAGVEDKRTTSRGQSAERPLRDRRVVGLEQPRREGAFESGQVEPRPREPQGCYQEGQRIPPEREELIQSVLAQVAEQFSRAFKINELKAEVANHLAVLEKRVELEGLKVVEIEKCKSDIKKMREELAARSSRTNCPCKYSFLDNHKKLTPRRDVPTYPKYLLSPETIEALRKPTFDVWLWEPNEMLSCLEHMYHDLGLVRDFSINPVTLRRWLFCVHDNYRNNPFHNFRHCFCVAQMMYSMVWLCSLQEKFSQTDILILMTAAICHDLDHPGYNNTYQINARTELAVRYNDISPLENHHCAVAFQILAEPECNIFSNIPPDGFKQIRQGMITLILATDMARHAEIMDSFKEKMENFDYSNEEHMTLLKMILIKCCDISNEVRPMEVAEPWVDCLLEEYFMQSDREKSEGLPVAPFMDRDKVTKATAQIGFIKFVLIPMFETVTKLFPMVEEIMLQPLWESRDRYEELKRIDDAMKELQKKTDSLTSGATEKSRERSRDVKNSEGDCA", "assay_type": "biochemical"}, "[2]": {"experiment": "Stability study of drug substance in polyethylene/aluminum pouches", "assay_type": "physicochemical", "conditions": "solid, ambient temperature and 40° C.-45° C. (no humidity control), 3-month period", "method": "A stability study has been completed on Compound P3.1. Samples of Compound P3.1 were aliquoted into double-walled polyethylene pouches, which were tied off and then heat-scaled in an aluminum pouch. Samples were stored at ambient temperature and at 40° C.-45° C. (no humidity control) with testing performed over a 3-month period."}, "[3]": {"experiment": "Stability study of solution in purified water", "assay_type": "physicochemical", "conditions": "approximately 40 mg/mL in purified water, refrigerated and ambient, 8 days", "method": "In another stability study, Compound P3.1 was dissolved at approximately 40 mg/mL of purified water and evaluated for purity over a period of 8 days. Samples were stored at both refrigerated and ambient conditions, and tested at T=0, Day 2, and Day 8."}}}
{"smiles": "C[C@@H]1CN(Cc2ncccn2)C[C@H]1c1nc2c(cnn2C2CCOCC2)c(=O)[nH]1", "note": "(relative stereo)", "values": [{"measurement": "IC50", "setting": "PDE1", "value": 2500, "unit": "nM"}]}
{"smiles": "O=c1[nH]c(CN2CC(Oc3ccncc3)C2)cn2c(-c3ccc(F)cc3)ncc12", "note": "[Compound P1]", "values": [{"measurement": "Brain/Plasma ratio after 30 minutes", "setting": "[1]; 30 min", "value": 0.06}, {"measurement": "Brain/Plasma ratio after 120 minutes", "setting": "[1]; 120 min", "value": 0.08}]}
{"smiles": "O=c1[nH]c(CN2CC(Oc3cccnc3)C2)cn2c(C3CCOCC3)ncc12", "note": "[Compound P2]", "values": [{"measurement": "Brain concentration after 30 minutes", "setting": "[1]; 30 min", "value": "Below"}, {"measurement": "Brain concentration after 120 minutes", "setting": "[1]; 120 min", "value": "Below"}]}
{"smiles": "C[C@@H]1CN(Cc2ncccn2)C[C@H]1c1cn2c(C3CCOCC3)ncc2c(=O)[nH]1", "note": "[Compound P3.1, (3S,4S)-6-(4-methyl-1-pyrimidin-2-ylmethyl-pyrrolidin-3-yl)-3-(tetrahydro-pyran-4-yl)-7H-imidazo[1,5-a]pyrazin-8-one]", "values": [{"measurement": "IC50", "setting": "PDE9", "value": 10, "unit": "nM"}, {"measurement": "IC50", "setting": "PDE1", "value": 3000, "unit": "nM"}, {"measurement": "Changes to appearance or purity of the material on storage", "setting": "[2]", "value": "no changes to appearance or purity"}, {"measurement": "Change to purity of the compound or appearance of the solution", "setting": "[3]", "value": "No significant change"}, {"measurement": "Brain concentration after 30 minutes", "setting": "[1]; 30 min", "value": "30 min.: 67 ng/mL"}, {"measurement": "Brain concentration after 120 minutes", "setting": "[1]; 120 min", "value": "120 min.: 7 ng/mL"}, {"measurement": "Plasma concentration after 30 minutes", "setting": "[1]; plasma, 30 min", "value": "30 min.: 1620 ng/mL"}, {"measurement": "Plasma concentration after 120 minutes", "setting": "[1]; plasma, 120 min", "value": "120 min.: 226 ng/mL"}]}
{"smiles": "O=c1[nH]c(CN2CC(OCc3ccc(F)cc3)C2)nn2c(C3CCOCC3)ncc12", "note": "[Compound P4]", "values": [{"measurement": "Plasma concentration after 120 minutes", "setting": "[1]; plasma, 120 min", "value": "120 min.: 352 ng/mL"}]}
